Data as given in ChEMBL document CHEMBL6087386, “Radioprotective effectiveness of a novel delta-tocotrienol prodrug on mouse hematopoietic system against 60Co gamma-ray irradiation through inducing granulocyte-colony stimulating factor production” (Eur J Med Chem, 2024).
Activity calls are given as the source filed them. No cut-off for these calls is given here.

Key:
Mus musculus [1] = test: Induction of G-CSF production in C57BL/6J mouse model at 100 mg/kg, sc measured for 24 hrs by ELISA analysis; type: functional, organism-based
Mus musculus [2] = test: Induction of G-CSF production in sc dosed C57BL/6J mouse model measured for 24 hrs by ELISA analysis; type: functional, organism-based; conditions: dose 12.5-200 mg/kg
Mus musculus [3] = test: Induction of G-CSF production in C57BL/6J mouse model at 50 mg/kg, sc measured for 24 hrs by ELISA analysis; type: functional, organism-based
Mus musculus [4] = test: Induction of G-CSF production in C57BL/6J mouse model at 12.5 to 25 mg/kg, sc measured for 24 hrs by ELISA analysis; type: functional, organism-based; conditions: dose 12.5-25 mg/kg
Mus musculus [5] = test: Induction of G-CSF production in C57BL/6J mouse model at 100 to 200 mg/kg, sc measured for 24 hrs by ELISA analysis; type: functional, organism-based; conditions: dose 100-200 mg/kg
Mus musculus [6] = test: Radioprotective activity in C57BL/6J mouse assessed as survival rate at 100 mg/kg, sc preincubated with compound for 24 hrs followed by total body irradiation with 8.5 Gy and measured after 20 days by Kaplan-meier plot analysis; type: functional; conditions: light or radiation study, 504 h, time 21 day
Mus musculus [7] = test: Radioprotective activity in C57BL/6J mouse assessed as survival rate at 100 mg/kg, sc preincubated with compound for 24 hrs followed by total body irradiation with 9.5 Gy and measured after 30 days by Kaplan-meier plot analysis; type: functional; conditions: light or radiation study, 744 h, time 31 day
[8] = Tmax in ICR mouse at 100 mg/kg, iv measured upto 24 hrs by LC-MS/MS analysis; type: ADME, organism-based; conditions: in vivo
[9] = Tmax in ICR mouse at 100 mg/kg, sc measured upto 24 hrs by LC-MS/MS analysis; type: ADME, organism-based; conditions: in vivo
[10] = Cmax in ICR mouse at 100 mg/kg, iv measured upto 24 hrs by LC-MS/MS analysis; type: ADME, organism-based; conditions: in vivo
[11] = Cmax in ICR mouse at 100 mg/kg, sc measured upto 24 hrs by LC-MS/MS analysis; type: ADME, organism-based; conditions: in vivo
[12] = Half life in ICR mouse at 100 mg/kg, iv measured upto 24 hrs by LC-MS/MS analysis; type: ADME, organism-based; conditions: in vivo
[13] = Clearance in ICR mouse at 100 mg/kg, iv measured upto 24 hrs by LC-MS/MS analysis; type: ADME, organism-based; conditions: in vivo
[14] = MRT (0 to t) in ICR mouse at 100 mg/kg, iv measured upto 24 hrs by LC-MS/MS analysis; type: ADME, organism-based; conditions: in vivo
[15] = MRT (0 to t) in ICR mouse at 100 mg/kg, sc measured upto 24 hrs by LC-MS/MS analysis; type: ADME, organism-based; conditions: in vivo
[16] = MRT (0 to infinity) in ICR mouse at 100 mg/kg, iv measured upto 24 hrs by LC-MS/MS analysis; type: ADME, organism-based; conditions: in vivo
[17] = Volume of distribution at steady state in ICR mouse at 100 mg/kg, iv measured upto 24 hrs by LC-MS/MS analysis; type: ADME, organism-based; conditions: in vivo
[18] = Bioavailability in ICR mouse at 100 mg/kg, sc measured upto 24 hrs by LC-MS/MS analysis; type: ADME, organism-based; conditions: in vivo
Mus musculus [19] = test: Radioprotective activity in C57BL/6J mouse assessed as increase in WBC count at 100 mg/kg, sc preincubated with compound for 24 hrs followed by total body irradiation with 6.5 Gy and measured after 30 days; type: functional, organism-based; conditions: time 31.0 day
Mus musculus [20] = test: Radioprotective activity in C57BL/6J mouse assessed as increase in neutrophils at 100 mg/kg, sc preincubated with compound for 24 hrs followed by total body irradiation with 6.5 Gy and measured after 30 days; type: functional, organism-based; conditions: time 31.0 day
Mus musculus [21] = test: Radioprotective activity in C57BL/6J mouse assessed as increase in platelets count at 100 mg/kg, sc preincubated with compound for 24 hrs followed by total body irradiation with 6.5 Gy and measured after 30 days; type: functional, organism-based; conditions: time 31.0 day
Mus musculus [22] = test: Radioprotective activity in C57BL/6J mouse assessed as increase in RBC count at 100 mg/kg, sc preincubated with compound for 24 hrs followed by total body irradiation with 6.5 Gy and measured after 30 days; type: functional, organism-based; conditions: time 31.0 day
Mus musculus [23] = test: Radioprotective activity in C57BL/6J mouse assessed as increase in neutrophils at 100 mg/kg, sc preincubated with compound for 24 hrs followed by total body irradiation with 6.5 Gy and measured on day 7; type: functional, organism-based; conditions: time 8.0 day
Mus musculus [24] = test: Radioprotective activity in C57BL/6J mouse assessed as increase in platelet count at 100 mg/kg, sc preincubated with compound for 24 hrs followed by total body irradiation with 6.5 Gy and measured on day 10; type: functional, organism-based; conditions: time 11.0 day
Mus musculus [25] = test: Radioprotective activity in C57BL/6J mouse assessed as increase in RBC count at 100 mg/kg, sc preincubated with compound for 24 hrs followed by total body irradiation with 6.5 Gy and measured on day 14; type: functional, organism-based; conditions: time 15.0 day
Mus musculus [26] = test: Radioprotective activity in C57BL/6J mouse assessed as increase in percentage of LK cells at 100 mg/kg, sc preincubated with compound for 24 hrs followed by total body irradiation with 6.5 Gy and measured after 30 days; type: functional, organism-based; conditions: time 31.0 day
Mus musculus [27] = test: Radioprotective activity in C57BL/6J mouse assessed as increase in percentage of LSK cells at 100 mg/kg, sc preincubated with compound for 24 hrs followed by total body irradiation with 6.5 Gy and measured after 30 days; type: functional, organism-based; conditions: time 31.0 day
Mus musculus [28] = test: Radioprotective activity in C57BL/6J mouse assessed as increase in long term hematopoietic stem cell frequency in LSK compartment at 100 mg/kg, sc preincubated with compound for 24 hrs followed by total body irradiation with 6.5 Gy and measured after 30 days; type: functional, organism-based; conditions: time 31.0 day
Mus musculus [29] = test: Radioprotective activity in C57BL/6J mouse assessed as increase in multipotent progenitor frequency in LSK compartment at 100 mg/kg, sc preincubated with compound for 24 hrs followed by total body irradiation with 6.5 Gy and measured after 30 days; type: functional, organism-based; conditions: time 31.0 day
Mus musculus [30] = test: Radioprotective activity in C57BL/6J mouse assessed as effect on LT-HSC number at 100 mg/kg, sc preincubated with compound for 24 hrs followed by total body irradiation with 6.5 Gy and measured after 30 days; type: functional, organism-based; conditions: time 31.0 day
Mus musculus [31] = test: Radioprotective activity in C57BL/6J mouse assessed as increase in ST-HSC number at 100 mg/kg, sc preincubated with compound for 24 hrs followed by total body irradiation with 6.5 Gy and measured after 30 days; type: functional, organism-based; conditions: time 31.0 day
Mus musculus [32] = test: Radioprotective activity in C57BL/6J mouse assessed as increase in MPP number at 100 mg/kg, sc preincubated with compound for 24 hrs followed by total body irradiation with 6.5 Gy and measured after 30 days; type: functional, organism-based; conditions: time 31.0 day
Mus musculus [33] = test: Radioprotective activity in C57BL/6J mouse assessed as splenomegaly at 100 mg/kg, sc preincubated with compound for 24 hrs followed by total body irradiation with 6.5 Gy and measured after 10 days; type: functional, organism-based; conditions: time 11.0 day
Mus musculus [34] = test: Radioprotective activity in C57BL/6J mouse assessed as increase in spleen coefficient at 100 mg/kg, sc preincubated with compound for 24 hrs followed by total body irradiation with 6.5 Gy and measured after 10 days; type: functional, organism-based; conditions: time 11.0 day
Mus musculus [35] = test: Radioprotective activity in C57BL/6J mouse assessed as fold increase in total number of splenic nucleated cells at 100 mg/kg, sc preincubated with compound for 24 hrs followed by total body irradiation with 6.5 Gy and measured after 10 days; type: functional; conditions: time 11 day
Mus musculus [36] = test: Radioprotective activity in C57BL/6J mouse assessed as effect on splenic LT-HSCs number at 100 mg/kg, sc preincubated with compound for 24 hrs followed by total body irradiation with 6.5 Gy and measured after 10 days; type: functional, organism-based; conditions: time 11.0 day
Mus musculus [37] = test: Radioprotective activity in C57BL/6J mouse assessed as survival rate at 100 mg/kg, sc preincubated with compound for 24 hrs followed by total body irradiation with 8.5 Gy and measured after 30 days by Kaplan-meier plot analysis; type: functional; conditions: Mus musculus, C57BL/6J, light or radiation study, 744 h, time 31 day
Mus musculus [38] = test: Radioprotective activity in C57BL/6J mouse assessed as […] in survival rate at 100 mg/kg, sc preincubated with compound for 24 hrs followed by total body irradiation with 9.5 Gy and measured after 30 days by Kaplan-meier plot analysis; type: functional, organism-based; conditions: time 31.0 day
[39] = Stability in C57BL/6J mouse whole blood assessed as half-life; type: ADME, tissue-based
[40] = Stability in C57BL/6J mouse plasma assessed as half-life; type: ADME, cell-free
[41] = Stability in […] human plasma assessed as half-life; type: ADME, cell-free
[42] = Drug concentration in C57BL/6J mouse plasma at 100 mg/kg, sc measured after 24 hrs; type: ADME, organism-based; conditions: in vivo
Mus musculus [43] = test: Radioprotective activity in C57BL/6J mouse assessed as increase in G-CSF production in serum at 100 mg/kg, sc; type: functional, organism-based; conditions: time 24.0 hrs
Mus musculus [44] = test: Radioprotective activity in C57BL/6J mouse assessed as increase in G-CSF production in serum at 100 mg/kg, sc measured for 72 hrs; type: functional, organism-based
Mus musculus [45] = test: Radioprotective activity in C57BL/6J mouse assessed as increase in G-CSF production in serum at 100 mg/kg, sc measured for 6 to 24 hrs; type: functional, organism-based; conditions: time 6-24 hrs
Mus musculus [46] = test: Radioprotective activity in C57BL/6J mouse assessed as increase in number of total bone marrow cells at 100 mg/kg, sc preincubated with compound for 24 hrs followed by total body irradiation with 6.5 Gy and measured after 30 days; type: functional, organism-based; conditions: time 31.0 day

## CC(C)=CCC/C(C)=C/CC/C(C)=C/CC[C@]1(C)CCc2cc(O)cc(C)c2O1 [DELTA-TOCOTRIENOL]
Mus musculus [1]
  Activity: Active
Mus musculus [2]
  Activity: Dose-dependent-effect
Mus musculus [3]
  Activity: Active
Mus musculus [4]
  Activity: inactive
Mus musculus [5]
  Activity: Active
Mus musculus [6]
  survival at 100 mg/kg: 70%
Mus musculus [7]
  survival at 100 mg/kg: 60%
[8]
  Tmax: 4.8 min
[9]
  Tmax: 12 h
[10]
  Cmax: 1.11 ng/mL
[11]
  Cmax: 4.95 ng/mL
[12]
  half-life: 4.43 h
[13]
  CL: 4.4143 mL/min/kg
[14]
  MRT last at 24 h: 1.46 h
[15]
  MRT last at 24 h: 13.9 h
[16]; ICR
  MRT inf: 1.63 h
[17]; ICR, read-out: Vdss
  Vd: 0.437 L/kg
[18]
  F: 2.02%
Mus musculus [19]
  Activity: Active
Mus musculus [20]
  Activity: Active
Mus musculus [21]
  Activity: Active
Mus musculus [22]
  Activity: Active
Mus musculus [23]
  Activity: Active
Mus musculus [24]
  Activity: Active
Mus musculus [25]
  Activity: Active
Mus musculus [26]
  Activity: Active
Mus musculus [27]
  Activity: Active
Mus musculus [28]
  Activity: Active
Mus musculus [29]
  Activity: Active
Mus musculus [30]
  Activity: inactive
Mus musculus [31]
  Activity: Active
Mus musculus [32]
  Activity: Active
Mus musculus [33]
  Activity: Active
Mus musculus [34]
  Activity: Active
Mus musculus [35]
  fold change (FC): ~2.5
Mus musculus [36]
  Activity: Active

## CC(C)=CCC/C(C)=C/CC/C(C)=C/CC[C@]1(C)CCc2cc(OC(=O)CCC(=O)O)cc(C)c2O1
Mus musculus [1]
  Activity: Active
Mus musculus [6]
  survival at 100 mg/kg: 70%
Mus musculus [37]
  survival at 100 mg/kg: 90%
Mus musculus [38]
  Activity: inactive
Mus musculus [7]
  survival at 100 mg/kg: 90%
[39]
  half-life: 9.3 min
[40]
  half-life: 3.73 h
[41]
  half-life: 1.92 h
[8]
  Tmax: 4.98 min
[9]
  Tmax: 0.083 h
[10]
  Cmax: 5.15 ng/mL
[11]
  Cmax: 2.02 ng/mL
[12]
  half-life: 10.4 h
[13]
  CL: 3.7553 mL/min/kg
[14]
  MRT last at 24 h: 1.36 h
[15]
  MRT last at 24 h: 11.9 h
[16]; iv, 100 mg/kg, 24 h
  MRT: 3.47 h
[17]; iv, 100 mg/kg, 24 h
  Vdss: 0.33658 L/kg
[18]
  F: 13.86%
[42]
  Drug uptake: Active
Mus musculus [43]
  Activity: Time-dependent-effect
Mus musculus [44]
  Activity: Active
Mus musculus [45]
  Activity: Active
Mus musculus [19]
  Activity: Active
Mus musculus [20]
  Activity: Active
Mus musculus [21]
  Activity: Active
Mus musculus [22]
  Activity: Active
Mus musculus [23]
  Activity: Active
Mus musculus [24]
  Activity: Active
Mus musculus [25]
  Activity: Active
Mus musculus [46]
  Activity: Active
Mus musculus [26]
  Activity: Active
Mus musculus [27]
  Activity: Active
Mus musculus [28]
  Activity: Active
Mus musculus [29]
  Activity: Active
Mus musculus [30]
  Activity: inactive
Mus musculus [31]
  Activity: Active
Mus musculus [32]
  Activity: Active
Mus musculus [33]
  Activity: Active
Mus musculus [34]
  Activity: Active
Mus musculus [35]
  fold change (FC): ~2.5
Mus musculus [36]
  Activity: Active
